Reference: PMC8972196, “A Set of Experimentally Validated Decoys for the Human CC Chemokine Receptor 7 (CCR7) Obtained by Virtual Screening” (Frontiers in Pharmacology, 2022)
Where two headings read alike, the source gives them in different places.

Target: T1, human CCR7 (Homo sapiens, UniProt P32248)
T1 construct: expressed in transfected cells
T1 sequence (P32248 25-378): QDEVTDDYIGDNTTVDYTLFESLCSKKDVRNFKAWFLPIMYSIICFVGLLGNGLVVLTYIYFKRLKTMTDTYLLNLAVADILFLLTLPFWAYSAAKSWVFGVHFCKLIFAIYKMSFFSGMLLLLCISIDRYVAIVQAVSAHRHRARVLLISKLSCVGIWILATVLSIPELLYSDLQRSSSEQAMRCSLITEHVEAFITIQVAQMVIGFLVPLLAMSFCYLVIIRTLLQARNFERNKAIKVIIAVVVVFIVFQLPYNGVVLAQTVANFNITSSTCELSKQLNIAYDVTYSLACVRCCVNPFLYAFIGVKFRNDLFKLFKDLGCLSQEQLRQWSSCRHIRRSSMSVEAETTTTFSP
Test: CCL19-induced calcium mobilization assay, U87.CD4 cells expressing CCR7
Format: cell-based
In short: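 U87.CD4 cells stably expressing human CCR7, CXCR2 or CCR5 were seeded at 20,000 cells/well and incubated overnight at 37°C and 5% CO2. Cells were then incubated for 45 min at room temperature in the dark before calcium responses were recorded. CCR7 responses were induced with CCL19 and CXCR2 responses with CXCL8.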

[1] = CCL19-induced calcium signaling, read-out: IC50 [μM] block CCL19 induced calcium signaling
[2] = classification of tested compounds as decoy or active
[3] = CCL19 induced calcium signaling, read-out: IC50 [μM] block CCL19 induced calcium signaling
[4] = classification as decoy or active on CCR7

Row | Structure (SMILES) | IC50 [1] [µM] | Decoy – 0 Active – 1 [2] | IC50 [3] [µM] | Decoy – 0 Active – 1 [4] | IC50 [µM]
1 | Cc1ccc(S(=O)(=O)NC(C)C(c2ccccc2)N2CCOCC2)cc1 (stereo not drawn) [C264, Cc1ccc(cc1)S(=O)(=O)NC(C)C(c2ccccc2)[NH+]3CCOCC3] |  |  |  | 0 | > 50
2 | CCOC(=O)NC(=S)Nc1ccccn1 [C047, S=C(NC1=NC=CC=C1)NC(OCC)=O] | > 30 | 0 |  |  | 
3 | COc1cccc(N(CC(=O)N2CCC(C(N)=O)CC2)S(=O)(=O)c2ccc(C)cc2)c1 [C253, Cc1ccc(cc1)S(=O)(=O)N(CC(=O)N2CCC(CC2)C(=O)N)c3cccc(c3)OC] |  |  | > 50 | 0 | 
4 | COc1ccc(C(Cc2ccccc2)NC(=O)N2CCC(O)C(F)(F)C2)cc1 (stereo not drawn) [C181, COc1ccc(C(Cc2ccccc2)NC(=O)N2CCC(O)C(F)(F)C2)cc1] |  |  | > 50 | 0 | 
5 | CC(O)CNc1c(N2CCN(Cc3ccccc3Cl)CC2)c(=O)c1=O (stereo not drawn) [C007, CC(O)CNc1c(N2CC[NH+](Cc3ccccc3Cl)CC2)c(=O)c1=O] |  | 0 |  |  | > 50
6 | C[C@H](Nc1c(N[C@H]2C[C@H]3CC[C@@]2(CN2CCCC2)C3(C)C)c(=O)c1=O)c1cccc2ccccc12 [C022, CC1(C)[C@@H]2CC[C@]1(CN3CCCC3)[C@@H](NC(C4=O)=C(N[C@H](C5=CC=CC6=C5C=CC=C6)C)C4=O)C2] | > 50 | 0 |  |  | 
7 | Cc1nc(CCCC(=O)N[C@H]2CCN(C(C)C)C2=O)cs1 [C090, Cc1nc(CCCC(=O)N[C@H]2CCN(C(C)C)C2=O)cs1] | > 50 | 0 |  |  | 
8 | CC(O)c1ccc(S(=O)(=O)NC(c2ccccc2)c2nccn2C)cc1 (stereo not drawn) [C247, CC(c1ccc(cc1)S(=O)(=O)NC(c2ccccc2)c3nccn3C)O] |  |  | > 50 | 0 | 
9 | O=C1CCCc2[nH]c(=O)c(C(=O)NC3CCc4cc(F)ccc43)cc21 (stereo not drawn) [C286, O=C1CCCc2[nH]c(=O)c(C(=O)NC3CCc4cc(F)ccc43)cc21] |  |  | > 50 | 0 | 
10 | CC(C)C1(CO)CCCN(C(=O)NCc2ccc(Cl)cc2F)C1 (stereo not drawn) [C168, CC(C)C1(CO)CCCN(C(=O)NCc2ccc(Cl)cc2F)C1] |  |  | > 50 | 0 | 
11 | O=C1CC(C(=O)NCc2csc3c2CCCC3)C2(CCCC2)O1 (stereo not drawn) [C229, O=C1CC(C(=O)NCc2csc3c2CCCC3)C2(CCCC2)O1] |  |  | > 50 | 0 | 
12 | CN(C)S(=O)(=O)c1ccc(-c2nnc(C(=O)NCc3ccccn3)o2)cc1 [C085, CN(C)S(=O)(=O)c1ccc(-c2nnc(C(=O)NCc3ccccn3)o2)cc1] | > 50 | 0 |  |  | 
13 | COc1c(Nc2cc(C(F)(F)F)cc(C(F)(F)F)c2)c(=O)c1=O [C025, O=C1C(OC)=C(NC2=CC(C(F)(F)F)=CC(C(F)(F)F)=C2)C1=O] | > 30 | 0 |  |  | 
14 | CCCc1ccc(S(=O)(=O)NC2COc3ccc(OC)cc3C2)cc1 (stereo not drawn) [C254, CCCc1ccc(cc1)S(=O)(=O)NC2Cc3cc(ccc3OC2)OC] |  |  | > 50 | 0 | 
15 | CCN(CC)S(=O)(=O)c1ccc2c(c1)cc(C(=O)NCc1ccc(C)o1)n2C [C102, CCN(CC)S(=O)(=O)c1ccc2c(c1)cc(C(=O)NCc1ccc(C)o1)n2C] | > 50 | 0 |  |  | 

The next lines start with results.

Row | IC50 [1] [µM] | Decoy – 0 Active – 1 [2] | IC50 [3] [µM] | Decoy – 0 Active – 1 [4] | Structure (SMILES) | IC50 [µM]
16 | > 50 | 0 |  |  | COc1cccc(-c2cc(C(=O)NCc3ccco3)no2)c1 [C094, COc1cccc(-c2cc(C(=O)NCc3ccco3)no2)c1] | 
17 |  |  | > 50 | 0 | Cc1nccn1-c1ccccc1CNC(=O)CC1NC(=O)c2ccccc21 (stereo not drawn) [C223, Cc1nccn1-c1ccccc1CNC(=O)CC1NC(=O)c2ccccc21] | 
18 |  |  | > 50 | 0 | O=C1CC(NCc2nc3ccccc3[nH]2)CN1Cc1ccccc1C(F)(F)F (stereo not drawn) [C277, O=C1CC(NCc2nc3ccccc3[nH]2)CN1Cc1ccccc1C(F)(F)F] | 
19 |  |  | > 50 | 0 | O=C1CC(NC(=O)N2CCCC2c2ccccc2)CN1c1ccccc1 (stereo not drawn) [C198, O=C1CC(NC(=O)N2CCCC2c2ccccc2)CN1c1ccccc1] | 
20 |  |  | > 50 | 0 | O=C1CC(C(=O)N2CCCC2c2ccccc2)CN1Cc1cccnc1 (stereo not drawn) [C228, O=C1CC(C(=O)N2CCCC2c2ccccc2)CN1Cc1cccnc1] | 
21 | > 50 | 0 |  |  | C[C@@H](CNC(=O)N[C@H]1CCC[C@@H](S(C)(=O)=O)C1)c1cccs1 [C118, C[C@@H](CNC(=O)N[C@H]1CCC[C@@H](S(C)(=O)=O)C1)c1cccs1] | 
22 | > 50 | 0 |  |  | CC(C)[C@@H](NC(=O)c1cccc(NC(=O)C2CC2)c1)c1ccccn1 [C155, CC(C)[C@@H](NC(=O)c1cccc(NC(=O)C2CC2)c1)c1ccccn1] | 
23 |  |  | > 50 | 0 | NC(=O)CN1CC(CCN2CCCC2=O)c2ccccc21 (stereo not drawn) [C214, NC(=O)CN1CC(CCN2CCCC2=O)c2ccccc21] | 
24 |  |  | > 50 | 0 | O=C(Nc1ccc(Cl)cc1Cl)N1CC(O)C(F)C1 (stereo not drawn) [C183, O=C(Nc1ccc(Cl)cc1Cl)N1CC(O)C(F)C1] | 
25 |  |  | > 50 | 0 | CC(C)Oc1ccc2ccccc2c1CNC(=O)N1CCC(C)(O)C1 (stereo not drawn) [C169, CC(C)Oc1ccc2ccccc2c1CNC(=O)N1CCC(C)(O)C1] | 
26 |  |  | > 50 | 0 | O=C1CC(C(=O)NC2CCCc3ccccc32)Cc2nc(NC(=O)C3CCC3)sc21 (stereo not drawn) [C226, O=C1CC(C(=O)NC2CCCc3ccccc32)Cc2nc(NC(=O)C3CCC3)sc21] | 
27 |  |  | > 50 | 0 | O=C(c1cn2ccccc2n1)N(CCN1CCCC1)Cc1ccc(Cl)c(Cl)c1 [C280, O=C(c1cn2ccccc2n1)N(CCN1CCCC1)Cc1ccc(Cl)c(Cl)c1] | 
28 |  |  | > 50 | 0 | Cc1ccn(C)c(=O)c1NC(=O)NC1CCCc2ccc(Cl)cc21 (stereo not drawn) [C196, Cc1ccn(C)c(=O)c1NC(=O)NC1CCCc2ccc(Cl)cc21] | 
29 | > 50 | 0 |  |  | O=C([C@@H]1CCCO1)N1CCc2ncnc(NCCc3ccco3)c2CC1 [C086, O=C([C@@H]1CCCO1)N1CCc2ncnc(NCCc3ccco3)c2CC1] | 
30 | > 50 | 0 |  |  | C[C@@H](CNC(=O)N[C@H]1CCO[C@@H](c2ccccc2)C1)c1ccsc1 [C108, C[C@@H](CNC(=O)N[C@H]1CCO[C@@H](c2ccccc2)C1)c1ccsc1] | 
31 | > 50 | 0 |  |  | O=C(CCCc1ccccc1)N[C@H]1CCN(CC(F)(F)F)C1=O [C096, O=C(CCCc1ccccc1)N[C@H]1CCN(CC(F)(F)F)C1=O] | 
32 | > 10 | 0 |  |  | CCNC(=O)c1cccc(NC(=O)CN(Cc2ccco2)C2CCCC2)c1 [C063, CCNC(=O)c1cccc(NC(=O)C[NH+](Cc2ccco2)C2CCCC2)c1] | 
33 | > 50 | 0 |  |  | O=C(NCc1ccccc1)c1cn(C2CN(C(=O)C3CC3)C2)nn1 [C081, O=C(NCc1ccccc1)c1cn(C2CN(C(=O)C3CC3)C2)nn1] | 
34 | > 50 | 0 |  |  | FC(F)(F)c1cc(CNC(=S)NCc2ccccc2)cc(C(F)(F)F)c1 [C050, S=C(NCC1=CC=CC=C1)NCC2=CC(C(F)(F)F)=CC(C(F)(F)F)=C2] | 
35 | > 50 | 0 |  |  | O=S1(=O)N=C(NCc2ccco2)c2ccccc21 [C148, O=S1(=O)N=C(NCc2ccco2)c2ccccc21] | 
36 | > 50 | 0 |  |  | CCOC[C@H]1CCN(C(=O)Nc2cccn(CC(F)(F)F)c2=O)C1 [C104, CCOC[C@H]1CCN(C(=O)Nc2cccn(CC(F)(F)F)c2=O)C1] | 
